Experimental data: article doi:10.1101/2020.06.27.175109v1 (biorxiv, 2020)

How the values were obtained:
[1] = molecular target: T1, CK2α (full-length, NanoLuc fusion) (Homo sapiens, UniProt P68400); experiment: cell-based; design: species or system HEK293T
[2] = molecular target: T2, CK2α’ (full-length, NanoLuc fusion) (Homo sapiens, UniProt P19784); experiment: cell-based; design: species or system HEK293T
[3] = molecular target: T2, CK2α’ (full-length, NanoLuc fusion); experiment: NanoBRET tracer displacement, intact HEK293T; format: cell-based; conditions: intact cells, […] h, […] °C, tracer competition
[4] = molecular target: T1, CK2α (full-length, NanoLuc fusion); experiment: NanoBRET tracer displacement, intact HEK293T; format: cell-based; conditions: intact cells, […] h, […] °C, tracer competition

T2 sequence (P19784 whole entry, the tested form may be a part): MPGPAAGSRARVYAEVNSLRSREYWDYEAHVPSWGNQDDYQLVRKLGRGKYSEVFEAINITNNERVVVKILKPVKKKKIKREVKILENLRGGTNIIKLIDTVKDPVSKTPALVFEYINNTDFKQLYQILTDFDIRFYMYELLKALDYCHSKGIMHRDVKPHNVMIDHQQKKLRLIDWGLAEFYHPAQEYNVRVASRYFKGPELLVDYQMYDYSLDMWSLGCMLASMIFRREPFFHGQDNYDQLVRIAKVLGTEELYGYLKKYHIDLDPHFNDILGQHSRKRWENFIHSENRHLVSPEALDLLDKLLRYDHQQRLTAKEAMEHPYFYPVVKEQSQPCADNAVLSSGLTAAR
T1 sequence (P68400 whole entry, the tested form may be a part): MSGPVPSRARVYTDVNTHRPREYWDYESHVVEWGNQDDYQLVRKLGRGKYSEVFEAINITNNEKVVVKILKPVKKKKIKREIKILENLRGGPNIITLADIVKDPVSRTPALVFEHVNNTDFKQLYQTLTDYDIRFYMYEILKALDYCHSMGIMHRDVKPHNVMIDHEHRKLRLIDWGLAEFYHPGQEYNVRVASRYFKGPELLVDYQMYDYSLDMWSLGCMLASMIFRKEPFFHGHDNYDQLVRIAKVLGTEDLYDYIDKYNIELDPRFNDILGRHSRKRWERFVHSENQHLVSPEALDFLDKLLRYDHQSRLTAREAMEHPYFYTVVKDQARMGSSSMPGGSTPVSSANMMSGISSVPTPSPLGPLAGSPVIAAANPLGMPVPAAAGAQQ

| IC50 [1] [µM] | IC50 [2] [µM] | IC50 [4] [µM] | Structure (SMILES) | IC50 [3] [µM] |
| --- | --- | --- | --- | --- |
| > 50 | > 50 | – | CC(C)(C)OC(=O)N(CCOCCO)c1ccn2ncc(-c3ccc(C#N)c(O)c3)c2n1 [compound 23, tert-Butyl N-[3-(4-cyano-3-hydroxyphenyl)pyrazolo[1,5-a]pyrimidin-5-yl]-N-[2-(2-hydroxyethoxy)ethyl]carbamate] | – |
| – | – | 5.7 | O=C(O)c1ccc2cc1OCCOCCNc1ccn3ncc-2c3n1 [compound 34, 7,10-Dioxa-13,17,18,21-tetraazatetracyclo[12.5.2.1^2,^6.0^17,^20]docosa-1(20),2,4,6(22),14(21),15,18-heptaene-5-carboxylic acid] | 16.2 |
| – | – | – | CC(C)(C)OC(=O)N1CCOCCOc2cc(ccc2C(=O)O)-c2cnn3ccc1nc23 [compound 32, 13-[(tert-Butoxy)carbonyl]-7,10-dioxa-13,17,18,21-tetraazatetracyclo[12.5.2.1^2,^6.0^17,^20]docosa-1(20),2,4,6(22),14(21),15,18-heptaene-5-carboxylic acid] | 7.39 |
